The term EC50 denotes the midpoint of the concentration-response curve.

The values that follow come from patent publication US9102648B1, “Bioavailable diacylhydrazine ligands for modulating the expression of exogenous genes via an ecdysone receptor complex” (Intrexon Corporation, priority 2003, dated 2015).

A short description of series [1]: Aqueous equilibrium solubility in pH 7.4 buffer. The note with it: pH 7.4 aqueous buffer, room temperature, equilibrium.
Protocol: Equilibrium solubility was measured in pH 7.4 aqueous buffer. The buffer was prepared by adjusting the pH of a 0.07 M solution of NaH2PO4 to pH 7.4 with 10 N NaOH. […] At least 1 mg of powder was combined with 1 mL of buffer to make >1 mg/mL mixture. These samples were shaken for ≧2 hours and left to stand overnight at room temperature. The samples were then filtered through a 0.45-μm Nylon syringe filter that was first saturated with the sample. The filtrate was sampled twice, consecutively. The filtrate was assayed by HPLC against standards prepared in methanol.
In a further series the test system is Caco-2 monolayers. Briefly: Bi-directional permeability, CACO-2. The format is in vitro ADME. As to conditions: for Papp B-A / Papp A-B Ratio: Caco-2 efflux ratio. As for the experimental part:
Caco-2 monolayers were grown to confluence on collagen-coated, microporous, polycarbonate membranes in 12-well Costar Transwell plates. Details of the plates and their certification are shown below. The permeability assay buffer was Hank's Balanced Salt Solution containing 10 mM HEPES and 15 mM glucose at a pH of 7.0±0.2. The dosing solution concentration was 10 μM in assay buffer. At each time point, 1 and 2 hours, a 200-μL aliquot was taken from the receiver chamber and replaced with fresh assay buffer. Cells were dosed on the apical side (A-to-B) or basolateral side (B-to-A) and incubated at 37° C. with 5% CO2 and 90% relative humidity. Each determination was performed in duplicate. The important experimental parameters are outlined below. Permeability through a cell-free (blank) membrane was studied to determine non-specific binding and free diffusion of the compound through the device. Lucifer yellow flux was also measured for each monolayer after being subjected to the test compounds to ensure no damage was inflicted to the cell monolayers during the flux period.
All samples were assayed by LC/MS using electrospray ionization. Typical LC/MS conditions are as follows:
dCr/dt is the cumulative concentration in the receiver compartment versus time in M s^−1.
Vr is the volume of the receiver compartment in cm^3.
Vd is the volume of the donor compartment in cm^3.
A is the area of the cell monolayer (1.13 cm^2 for 12-well Transwell).
C0 is the concentration of the dosing solution in M.
Cr^final is the cumulative receiver concentration in M at the end of the incubation period.
Cd^final is the concentration of the donor in M at the end of the incubation period.

Series [2] deals with T1, Bombyx mori EcR (VP16 fusion, CVBE switch construct) (Bombyx mori, UniProt P49881).
T1 sequence (P49881 86-606): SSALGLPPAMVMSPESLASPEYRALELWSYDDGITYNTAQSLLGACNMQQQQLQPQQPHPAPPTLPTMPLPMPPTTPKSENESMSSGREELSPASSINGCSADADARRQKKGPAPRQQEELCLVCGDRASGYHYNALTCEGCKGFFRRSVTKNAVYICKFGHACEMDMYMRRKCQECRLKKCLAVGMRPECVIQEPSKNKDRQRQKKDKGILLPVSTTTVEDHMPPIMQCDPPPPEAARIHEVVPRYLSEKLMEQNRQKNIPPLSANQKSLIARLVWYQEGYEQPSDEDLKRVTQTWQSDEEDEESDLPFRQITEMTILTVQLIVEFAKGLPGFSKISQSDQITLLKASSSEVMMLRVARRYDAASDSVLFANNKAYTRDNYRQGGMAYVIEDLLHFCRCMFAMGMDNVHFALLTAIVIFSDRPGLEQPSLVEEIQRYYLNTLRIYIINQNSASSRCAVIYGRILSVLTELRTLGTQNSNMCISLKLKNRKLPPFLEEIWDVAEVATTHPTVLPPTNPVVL
T1 sequence (P19793 1-462 partner): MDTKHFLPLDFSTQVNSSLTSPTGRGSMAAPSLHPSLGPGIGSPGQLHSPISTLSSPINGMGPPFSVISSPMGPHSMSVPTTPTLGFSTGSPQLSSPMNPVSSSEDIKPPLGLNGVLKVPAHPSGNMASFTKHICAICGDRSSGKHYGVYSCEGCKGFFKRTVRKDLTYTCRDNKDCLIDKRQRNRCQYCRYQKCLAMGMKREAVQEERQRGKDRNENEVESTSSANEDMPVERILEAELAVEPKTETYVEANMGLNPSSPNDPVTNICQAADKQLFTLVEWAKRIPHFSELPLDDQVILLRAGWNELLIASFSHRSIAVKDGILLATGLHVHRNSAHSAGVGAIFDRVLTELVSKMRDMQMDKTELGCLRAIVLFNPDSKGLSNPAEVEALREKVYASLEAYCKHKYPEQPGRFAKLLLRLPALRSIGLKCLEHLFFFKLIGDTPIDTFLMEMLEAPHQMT
Kind of series: Z3 Assay (HEK-293 cells with CVBE and 6XEcRE LacZ, β-galactosidase reporter). The note with it: for Fold Induction, Z3 Assay, 3.3 uM: 3.3 uM ligand, ligand treated / DMSO treated cells; for Fold Induction, Z3 Assay, 3.3 uM / EC50: average of two wells; for Z3 assay Rel Max FI: maximum fold induction at any concentration relative to that of GS-E ligand; for Z3 assay Rel Max FI / EC50: HEK-293 Z3 cells; for EC50: read-out: Z3 assay EC50, β-galactosidase reporter.

A short description of series [3]: Partition coefficient Log (D), 1-octanol / pH 7.4 buffer. The format is physicochemical. As to conditions: water-saturated 1-octanol / pH 7.4 buffer, room temperature. As for the experimental part: The partition coefficient, Log (D), between water-saturated 1-octanol and pH 7.4 buffer was determined for the test compounds. The buffer was prepared as described in section 2. A 12 μl aliquot of a 10 mM stock solution in DMSO was introduced to a vial containing 0.60 mL of octanol and 0.60 mL of buffer at room temperature. Testosterone was also added to a final concentration of 100 μM as an internal control. The solution was vortexed for 60 minutes and centrifuged at 10,000 rpm for 10 minutes. The organic and aqueous layers were removed. Serial dilutions of the organic layer were made with 50% methanol except for the initial dilution, which was made in 100% methanol. Serial dilutions of the aqueous layer were made in the pH 7.4 buffer. The diluted samples were then assayed by LC/MS for the compound as well as for testosterone. The Log of the ratio of peak area responses was calculated to obtain the Log (D). Typical Log D values for testosterone are from 3.0-3.3.

Molecules are shown by their SMILES.

As for `CCc1c(OC)cccc1C(=O)NN(C(=O)c1ccccc1[S+](C)[O-])C(C)(C)C` (stereo not drawn) [RG-115199], the “Solubility pH 7.4” value in series [1] turned out to be 0.0064 mg/mL. In addition, in the series on Caco-2 monolayers (Caco-2), the “Papp Blank” value was 23.0 10^−6 cm/s; the “Papp, A-to-B Avg” value is recorded as 30.6 10^−6 cm/s; the “Papp, A-to-B Rep. 1” value is given as 31.1 10^−6 cm/s; the “Papp, A-to-B Rep. 2” value is listed as 30.2 10^−6 cm/s. Moreover, in the series on Caco-2 monolayers (Caco-2), the “Papp, B-to-A Avg” value is 30.9 10^−6 cm/s; the “Papp, B-to-A Rep. 1” value was 31.0 10^−6 cm/s; the “Papp, B-to-A Rep. 2” value was 30.9 10^−6 cm/s; the “Significant Efflux” value is on record as “No”. Also, in the series on Caco-2 monolayers, the “Papp B-A / Papp A-B Ratio” value came to 1.0. Moreover, in series [2], the “Fold Induction, Z3 Assay, 3.3 uM” value came to 349; the “Z3 assay Rel Max FI” value came to 0.734; the EC50 is 3.47 µM. Further, in series [3], the “Log(D) Octanol/pH 7.4” value came out at 2.0.

With `CCc1c(OC)cccc1C(=O)NN(C(=O)c1ccccc1S(=O)(=O)O)C(C)(C)C` [RG-115555], the “Solubility pH 7.4” value in series [1] was “≧1.0 mg/mL”. In addition, in the series on Caco-2 monolayers (Caco-2), the “Papp Blank” value is listed as 35.8 10^−6 cm/s; the “Papp, A-to-B Avg” value was 0.18 10^−6 cm/s; the “Papp, A-to-B Rep. 1” value is on record as 0.18 10^−6 cm/s; the “Papp, A-to-B Rep. 2” value is 0.18 10^−6 cm/s. Moreover, in the series on Caco-2 monolayers (Caco-2), the “Papp, B-to-A Avg” value is on record as 1.61 10^−6 cm/s; the “Papp, B-to-A Rep. 1” value is 1.55 10^−6 cm/s; the “Papp, B-to-A Rep. 2” value is on record as 1.67 10^−6 cm/s. Moreover, the “Papp B-A / Papp A-B Ratio” value with Caco-2 monolayers was found to be 8.9. In addition, in series [2], the “Fold Induction, Z3 Assay, 3.3 uM” value turned out to be 1; the “Z3 assay Rel Max FI” value is reported as 0.006; the concentration for a half-maximal effect (EC50) is over 50 µM. Besides, the “Log(D) Octanol/pH 7.4” value in series [3] was found to be 0.0.
